Source: ChEMBL document CHEMBL1139937, “Novel 3-galloylamido-N'-substituted-2,6-piperidinedione-N-acetamide peptidomimetics as metalloproteinase inhibitors” (Bioorg Med Chem Lett, 2007)

Experiments:
Aminopeptidase N = target: T1, Aminopeptidase N (Sus scrofa, UniProt P15145); experiment: Inhibition of pig kidney microsomal aminopeptidase assessed as liberation of p-nitroanilide
T1 sequence (P15145 whole entry): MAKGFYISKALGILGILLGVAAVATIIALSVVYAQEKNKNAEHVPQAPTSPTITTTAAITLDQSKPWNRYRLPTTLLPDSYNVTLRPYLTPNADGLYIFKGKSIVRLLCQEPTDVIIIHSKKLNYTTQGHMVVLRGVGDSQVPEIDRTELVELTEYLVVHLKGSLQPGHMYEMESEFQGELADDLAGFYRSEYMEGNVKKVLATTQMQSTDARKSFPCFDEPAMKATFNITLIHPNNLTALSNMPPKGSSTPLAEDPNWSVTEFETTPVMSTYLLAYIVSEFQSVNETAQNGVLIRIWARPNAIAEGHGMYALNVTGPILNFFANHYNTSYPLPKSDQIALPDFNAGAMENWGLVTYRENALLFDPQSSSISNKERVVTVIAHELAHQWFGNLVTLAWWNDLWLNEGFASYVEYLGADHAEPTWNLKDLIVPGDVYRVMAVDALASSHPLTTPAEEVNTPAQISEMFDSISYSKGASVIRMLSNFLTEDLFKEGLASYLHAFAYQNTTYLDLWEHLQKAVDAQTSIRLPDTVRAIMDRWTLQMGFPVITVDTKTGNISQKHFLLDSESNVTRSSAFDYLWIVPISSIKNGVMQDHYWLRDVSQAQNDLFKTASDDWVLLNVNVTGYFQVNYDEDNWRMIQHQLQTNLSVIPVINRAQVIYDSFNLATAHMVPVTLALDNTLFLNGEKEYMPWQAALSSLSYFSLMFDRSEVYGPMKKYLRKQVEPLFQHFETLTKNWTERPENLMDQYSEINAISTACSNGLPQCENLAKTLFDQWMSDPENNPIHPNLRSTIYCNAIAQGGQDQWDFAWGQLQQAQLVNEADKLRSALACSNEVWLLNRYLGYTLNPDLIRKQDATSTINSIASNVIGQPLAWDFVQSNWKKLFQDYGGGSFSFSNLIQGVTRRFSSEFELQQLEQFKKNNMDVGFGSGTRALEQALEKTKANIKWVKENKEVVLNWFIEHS

[1] = target: 72 kDa type IV collagenase (Homo sapiens, UniProt P08253); experiment: Inhibition of MMP2 after 30 mins
72 kDa type IV collagenase, sequence (P08253 whole entry): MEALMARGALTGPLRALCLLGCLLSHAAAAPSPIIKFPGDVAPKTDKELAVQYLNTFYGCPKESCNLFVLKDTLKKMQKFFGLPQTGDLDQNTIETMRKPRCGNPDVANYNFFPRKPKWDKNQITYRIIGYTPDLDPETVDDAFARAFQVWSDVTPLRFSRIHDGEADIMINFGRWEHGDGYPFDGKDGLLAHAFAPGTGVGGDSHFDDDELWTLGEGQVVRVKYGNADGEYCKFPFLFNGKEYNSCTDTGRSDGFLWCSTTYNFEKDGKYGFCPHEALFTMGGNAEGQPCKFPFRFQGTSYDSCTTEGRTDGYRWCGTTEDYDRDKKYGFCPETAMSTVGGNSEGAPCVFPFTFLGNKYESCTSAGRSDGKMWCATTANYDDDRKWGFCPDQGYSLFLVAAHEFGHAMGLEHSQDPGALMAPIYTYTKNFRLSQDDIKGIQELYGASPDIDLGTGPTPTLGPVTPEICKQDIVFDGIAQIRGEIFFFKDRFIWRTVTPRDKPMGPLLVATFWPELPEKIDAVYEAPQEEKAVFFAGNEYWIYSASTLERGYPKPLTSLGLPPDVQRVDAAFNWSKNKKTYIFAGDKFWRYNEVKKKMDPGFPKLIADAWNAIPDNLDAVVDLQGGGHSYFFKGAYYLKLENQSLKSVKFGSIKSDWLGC

Row | SMILES | IC50 (Aminopeptidase N) [µM] | IC50 [1] [µM]
1 | COC(=O)[C@H](CCCNC(N)=N[N+](=O)[O-])NC(=O)CN1C(=O)CC[C@H](NC(=O)c2cc(OC)c(OC)c(OC)c2)C1=O | 42 | 0.3
2 | CC(C)C[C@H](NC(=O)[C@@H](O)[C@H](N)Cc1ccccc1)C(=O)O [UBENIMEX] | – | 3.4
3 | COC(=O)[C@H](CCCCNC(=O)c1ccccc1)NC(=O)CN1C(=O)CC[C@H](NC(=O)c2cc(OC)c(OC)c(OC)c2)C1=O | 38.1 | 0.6
4 | COC(=O)[C@](C)(Cl)NC(=O)CN1C(=O)CC[C@H](NC(=O)c2cc(OC)c(OC)c(OC)c2)C1=O | 50 | 15.6
5 | COC(=O)CN1C(=O)CC[C@H](NC(=O)c2cc(OC)c(OC)c(OC)c2)C1=O | 63.4 | 10.6
6 | COC(=O)CCNC(=O)CN1C(=O)CC[C@H](NC(=O)c2cc(OC)c(OC)c(OC)c2)C1=O | 53.7 | 2.2
7 | COc1cc(C(=O)N[C@H]2CCC(=O)N(CC(=O)NO)C2=O)cc(OC)c1OC | 3.1 | 2.2
8 | COC(=O)CNC(=O)CN1C(=O)CC[C@H](NC(=O)c2cc(OC)c(OC)c(OC)c2)C1=O | 55.4 | 4.4
9 | CC[C@H](C)[C@H](NC(=O)CN1C(=O)CC[C@H](NC(=O)c2cc(OC)c(OC)c(OC)c2)C1=O)C(=O)OC | 49.3 | 4.3
10 | COc1cc(C(=O)N[C@H]2CCC(=O)N(CC(=O)O)C2=O)cc(OC)c1OC | 49.8 | 4

Second part, the compound after the results:

Row | IC50 (Aminopeptidase N) [µM] | IC50 [1] [µM] | SMILES
11 | 20.7 | 1.2 | COC(=O)[C@H](CCSC)NC(=O)CN1C(=O)CC[C@H](NC(=O)c2cc(OC)c(OC)c(OC)c2)C1=O
12 | 44.8 | 0.3 | COC(=O)[C@H](Cc1ccc(O)cc1)NC(=O)CN1C(=O)CC[C@H](NC(=O)c2cc(OC)c(OC)c(OC)c2)C1=O
13 | 21.7 | 0.5 | COC(=O)C[C@H](NC(=O)CN1C(=O)CC[C@H](NC(=O)c2cc(OC)c(OC)c(OC)c2)C1=O)C(=O)OC
14 | 18.9 | 1.2 | COC(=O)[C@H](C)NC(=O)CN1C(=O)CC[C@H](NC(=O)c2cc(OC)c(OC)c(OC)c2)C1=O
15 | 21.4 | 1 | COC(=O)[C@@H](NC(=O)CN1C(=O)CC[C@H](NC(=O)c2cc(OC)c(OC)c(OC)c2)C1=O)C(C)C
16 | 43.1 | 1.2 | COC(=O)[C@H](Cc1c[nH]c2ccccc12)NC(=O)CN1C(=O)CC[C@H](NC(=O)c2cc(OC)c(OC)c(OC)c2)C1=O
17 | 50.3 | 1.7 | COC(=O)[C@H](CS)NC(=O)CN1C(=O)CC[C@H](NC(=O)c2cc(OC)c(OC)c(OC)c2)C1=O
18 | 46.2 | 3.8 | COC(=O)[C@H](CC(C)C)NC(=O)CN1C(=O)CC[C@H](NC(=O)c2cc(OC)c(OC)c(OC)c2)C1=O
19 | 51.9 | 1.8 | COC(=O)[C@@H](NC(=O)CN1C(=O)CC[C@H](NC(=O)c2cc(OC)c(OC)c(OC)c2)C1=O)[C@@H](C)O
20 | 11 | 1.3 | COC(=O)[C@H](Cc1ccccc1)NC(=O)CN1C(=O)CC[C@H](NC(=O)c2cc(OC)c(OC)c(OC)c2)C1=O
21 | 5.2 | 13 | COC(=O)[C@H](Cc1cnc[nH]1)NC(=O)CN1C(=O)CC[C@H](NC(=O)c2cc(OC)c(OC)c(OC)c2)C1=O
22 | 46.2 | 1.4 | COC(=O)[C@@H](Cc1ccccc1)NC(=O)CN1C(=O)CC[C@H](NC(=O)c2cc(OC)c(OC)c(OC)c2)C1=O
